Values quoted from earlier work as cited in patent US6972133B1, “Degradable animal chewing article possessing enhanced safety, durability and mouth-feel” (Seefar Technologies, Inc., priority 1999, dated 2005).

Tests used:
[1] = system: fungi (including yeast) and algae; details: most active against fungi (including yeast) and algae
[2] = system: dogs

| SMILES | anti-microbial activity [1] | LD50 oral toxicity [2] [mg/kg] | solubility in dilute alkali solution (dilute alkali solution) | solubility in ethanol (ethanol) | solubility in water (water, unmodified triclosan) |
| --- | --- | --- | --- | --- | --- |
| Cc1ccc(S(=O)(=O)C(I)I)cc1 [DIMTS, diiodomethyl-p-tolylsulphone] | broad spectrum of anti-microbial activity |  |  |  |  |
| Oc1cc(Cl)ccc1Oc1ccc(Cl)cc1Cl [triclosan, 2,4,4″-trichloro-2-hydroxydiphenylether] |  | > 5000 | sparingly soluble | soluble | insoluble |
